Consider nine compounds from US7674909B2, “Tetrahydroquinoline derivatives and their use as FSH receptor modulators” (N.V. Organon, priority 2002, dated 2010).

For the experiment, the target named is T1, human FSH receptor (Homo sapiens, UniProt P23945).
T1 construct: expressed in transfected cells; host or cells: Chinese Hamster Ovary (CHO) cells, stably transfected, cotransfected with a CRE-luciferase reporter
T1 sequence (P23945 18-695): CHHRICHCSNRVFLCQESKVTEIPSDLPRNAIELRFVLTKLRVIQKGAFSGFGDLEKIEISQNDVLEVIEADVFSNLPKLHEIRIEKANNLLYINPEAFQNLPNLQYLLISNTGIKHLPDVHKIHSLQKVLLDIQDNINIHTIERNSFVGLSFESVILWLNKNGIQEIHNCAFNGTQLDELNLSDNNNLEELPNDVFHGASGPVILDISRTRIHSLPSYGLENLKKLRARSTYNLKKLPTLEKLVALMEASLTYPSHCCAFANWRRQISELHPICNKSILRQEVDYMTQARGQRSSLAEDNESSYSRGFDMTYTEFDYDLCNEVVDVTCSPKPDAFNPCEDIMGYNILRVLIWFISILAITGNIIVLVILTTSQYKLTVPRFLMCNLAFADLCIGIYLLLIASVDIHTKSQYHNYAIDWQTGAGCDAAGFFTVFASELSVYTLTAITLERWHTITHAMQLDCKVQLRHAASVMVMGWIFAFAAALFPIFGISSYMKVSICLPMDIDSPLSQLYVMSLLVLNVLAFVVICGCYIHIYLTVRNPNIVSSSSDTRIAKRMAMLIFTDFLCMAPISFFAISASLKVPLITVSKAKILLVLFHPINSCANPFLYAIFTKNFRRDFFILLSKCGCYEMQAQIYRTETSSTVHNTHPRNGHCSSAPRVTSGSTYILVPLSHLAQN
The experiment can be described thus: CHO-FSH in vitro bioactivity (CRE-luciferase reporter, agonistic or antagonistic set-up). It is filed as cell-based. The note with it: CHO cells stably transfected with human FSH receptor and CRE/luciferase reporter; in either an agonistic or an antagonistic (rec-hFSH 10 mU/ml) assay set-up or both / in at least one of the assays; read-out: EC50 (IC50). The procedure: FSH activity of compounds were tested in Chinese Hamster Ovary (CHO) cells stably transfected with the human FSH receptor and cotransfected with a cAMP responsive element (CRE)/promotor directing the expression of a firefly luciferase reporter gene. Binding of ligand to the Gs-coupled FSH receptor will result in an increase of cAMP, which in turn will induce an increased transactivation of the luciferase reporter construct. To test antagonistic properties recombinant FSH in a concentration that induces approximately 80% of the maximal stimulation of cAMP accumulation in the absence of test compound was added (rec-hFSH; 10 mU/ml). The luciferase signal was quantified using a luminescence counter. For test compounds, EC50 values (concentration of test compound causing half-maximal (50%) stimulation or reduction) were calculated. For that purpose the software program GraphPad PRISM, version 3.0 (GraphPad software Inc., San Diego) was used.

In the case of `CC(=O)N1c2ccc(NC(=O)c3ccccc3)cc2C(C)(c2ccc(OCCN3CCOCC3)cc2)CC1(C)C` (stereo not drawn) [Example 36, N-{1-Acetyl-2,2,4-trimethyl-4-[4-(2-morpholin-4-yl-ethoxy)-phenyl]-1,2,3,4-tetrahydro-quinolin-6-yl}-benzamide], the EC50 is below 100 nM.
For `CC(=O)N1c2ccc(NC(=O)c3ccc(-c4ccccc4)cc3)cc2C(C)(c2ccc(OCC(=O)NCc3ccco3)cc2)CC1(C)C` (stereo not drawn) [Example 16], the concentration for a half-maximal effect (EC50) was below 100 nM.
As to `CC(=O)N1c2ccc(NC(=O)c3cccc(C(F)(F)F)c3)cc2C(C)(c2ccc(OCCN3CCOCC3)cc2)CC1(C)C` (stereo not drawn) [Example 42, N-{1-Acetyl-2,2,4-trimethyl-4-[4-(2-morpholin-4-yl-ethoxy)-phenyl]-1,2,3,4-tetrahydro-quinolin-6-yl}-3-trifluoromethyl-benzamide], the EC50 was below 100 nM.
`CC(=O)N1c2ccc(NC(=O)c3ccc(N(C)C)cc3)cc2C(C)(c2ccc(OCCN3CCOCC3)cc2)CC1(C)C` (stereo not drawn) [Example 41, N-{1-Acetyl-2,2,4-trimethyl-4-[4-(2-morpholin-4-yl-ethoxy)-phenyl]-1,2,3,4-tetrahydro-quinolin-6-yl}-4-dimethylamino-benzamide]: the EC50 was below 100 nM.
As to `CC(=O)N1c2ccc(NC(=O)c3ccc(-c4ccccc4)cc3)cc2C(C)(c2ccc(OCCCN3CCOCC3)cc2)CC1(C)C` (stereo not drawn) [Example 3, Biphenyl-4-carboxylic acid {1-acetyl-2,2,4-trimethyl-4-[4-(3-morpholin-4-yl-propoxy)-phenyl]-1,2,3,4-tetrahydro-quinolin-6-yl}-amide], the EC50 was below 100 nM.
`CC(=O)N1c2ccc(NC(=O)c3ccc(C(C)(C)C)cc3)cc2C(C)(c2ccc(OCCN3CCOCC3)cc2)CC1(C)C` (stereo not drawn) [Example 37, N-{1-Acetal-2,2,4-trimethyl-4-[4-(2-morpholin-4-ethoxy)-phenyl]-1,2,3,4-tetrahydro-quinolin-6-yl}-4-tert-butyl-benzamide]: the concentration giving a half-maximal response (EC50) was below 100 nM.
The figure for `CC(=O)N1c2ccc(NC(=O)c3ccc(Br)cc3)cc2C(C)(c2ccc(OCCN3CCOCC3)cc2)CC1(C)C` (stereo not drawn) [Example 39, N-{1-Acetyl-2,2,4-trimethyl-4-[4-(2-morpholin-4-yl-ethoxy)-phenyl]-1,2,3,4-tetrahydro-quinolin-6-yl}-4-bromo-benzamide] is below 100 nM; for `CC(=O)N1c2ccc(NC(=O)c3ccc(-c4ccccc4)cc3)cc2C(C)(c2ccc(OCc3ccccn3)cc2)CC1(C)C` (stereo not drawn) [Example 4, Biphenyl-4-carboxylic acid {1-acetyl-2,2,4-trimethyl-4-[4-(pyridin-2-ylmethoxy)-phenyl]-1,2,3,4-tetrahydro-quinolin-6-yl}-amide] it is below 100 nM; for `CC(=O)N1c2ccc(NC(=O)c3ccc(-c4ccccc4)cc3)cc2C(C)(c2ccc(OCc3ccncc3)cc2)CC1(C)C` (stereo not drawn) [Example 7, Biphenyl-4-carboxylic acid {1-acetyl-2,2,4-trimethyl-4-[4-(pyridin-4-ylmethoxy)-phenyl]-1,2,3,4-tetrahydro-quinolin-6-yl}-amide] it is below 100 nM.
